{"source": "patent US20090023884A1", "about": "“METHOD FOR STORAGE AND/OR TRANSPORT OF BISPHENOLACETONE AND METHOD FOR PRODUCING AROMATIC POLYCARBONATE” (priority 2007, published 2009)", "format_in_all_cases": "physicochemical", "key": {"[1]": {"test": "Extended storage of acetone/bisphenolacetone liquid mixture at storage temperature range", "settings": "liquid mixture with acetone"}, "[2]": {"test": "Solubility experiments: BPA dissolved in acetone or phenol in oil bath at set temperature", "settings": "weight ratio BPA to solvent 7.5/2.5", "method": "0.6 gram of bisphenolacetone (BPA) powder was placed in a 10 ml graduated tube with a thread seal. Prior to the experiment, BPA flakes were crushed to said powder to ensure uniform packing density at the bottom of the tube. Then 0.2 gram of a solvent was added to the BPA. The solvent was either acetone (present invention) or phenol (comparative). Thus, the weight ratio of BPA to solvent was 7.5/2.5. The tube was then immersed in an oil bath at a certain temperature, and mixed up to full equilibrium. The foregoing was repeated except that the temperature of the oil bath was set at different values. Table 1 mentions the amounts of BPA dissolved in either acetone or phenol at temperatures ranging from 30 to 110° C. The amount of BPA dissolved was calculated from the loss of BPA from the solids layer at the bottom of the tube."}, "[3]": {"test": "Stability experiments: 4-isopropenyl phenol (IPP) formation in BPA solutions by GC-MS", "settings": "for IPP signal intensity where solvent is acetone / IPP signal intensity where solvent is phenol: BPA:solvent 6:4 by weight, GC-MS m/z=134 relative to untreated standard BPA sample", "method": "BPA and a solvent were mixed to produce solutions (containing no solids) having a weight ratio of BPA to solvent of 6:4. The solvent was either acetone (present invention) or phenol (comparative). Where the solvent was acetone the solution was obtained at a temperature of 35° C. and then kept at that temperature. However, in view of the above solubility experiments, where the solvent was phenol the solution could only be obtained at a temperature of 120° C. and was then kept at that temperature. The solutions were heated for a certain time period (3, 7 or 14 days) at either 35° C. (acetone) or 120° C. (phenol). At the end of each time period, the amount of 4-isopropenyl phenol (IPP) was determined by means of GC-MS. Table 2 mentions the intensity of the GC-MS signal at m/z=134, which signal is characteristic for IPP, relative to a standard BPA sample that had not been subjected to said temperature treatment."}}}
{"smiles": "CC(C)(c1ccc(O)cc1)c1ccc(O)cc1", "note": "[BPA, 2,2-bis(4-hydroxyphenyl)propane]", "values": [{"measurement": "bisphenolacetone and solution properties upon extended storage", "setting": "[1]", "result": "remain unchanged"}, {"measurement": "Vol. % of BPA dissolved in acetone", "setting": "[2]; 30 °C", "result": 61, "unit": "Vol. %"}, {"measurement": "Vol. % of BPA dissolved in acetone", "setting": "[2]; 60 °C", "result": 72, "unit": "Vol. %"}, {"measurement": "Vol. % of BPA dissolved in phenol", "setting": "[2]; 60 °C", "result": 0, "unit": "Vol. %"}, {"measurement": "Vol. % of BPA dissolved in acetone", "setting": "[2]; 75 °C", "result": 72, "unit": "Vol. %"}, {"measurement": "Vol. % of BPA dissolved in phenol", "setting": "[2]; 75 °C", "result": 0, "unit": "Vol. %"}, {"measurement": "Vol. % of BPA dissolved in acetone", "setting": "[2]; 90 °C", "result": 74, "unit": "Vol. %"}, {"measurement": "Vol. % of BPA dissolved in phenol", "setting": "[2]; 90 °C", "result": 0, "unit": "Vol. %"}, {"measurement": "Vol. % of BPA dissolved in acetone", "setting": "[2]; 110 °C", "result": 74, "unit": "Vol. %"}, {"measurement": "Vol. % of BPA dissolved in phenol", "setting": "[2]; 110 °C", "result": 61, "unit": "Vol. %"}, {"measurement": "IPP signal intensity where solvent is acetone", "setting": "[3]; 3 days at 35 °C", "result": 0.1}, {"measurement": "IPP signal intensity where solvent is phenol", "setting": "[3]; 3 days at 120 °C", "result": 14.8}, {"measurement": "IPP signal intensity where solvent is acetone", "setting": "[3]; 7 days at 35 °C", "result": 0.0}, {"measurement": "IPP signal intensity where solvent is phenol", "setting": "[3]; 7 days at 120 °C", "result": 22.3}, {"measurement": "IPP signal intensity where solvent is acetone", "setting": "[3]; 14 days at 35 °C", "result": 0.0}, {"measurement": "IPP signal intensity where solvent is phenol", "setting": "[3]; 14 days at 120 °C", "result": 35.0}, {"measurement": "thermal degradation of BPA", "setting": "[3]; solution in acetone, storage at 35 °C", "result": "does not result in any substantial thermal degradation"}, {"measurement": "thermal degradation of BPA into IPP", "setting": "[3]; solvent phenol, solution kept at 120 °C", "result": "thermally degraded into IPP"}]}
